US20090105301A1, “9A-SUBSTITUTED AZALIDES FOR THE TREATMENT OF MALARIA” (priority 2006, published 2009)
Converted amounts (≈) assume the structure as drawn. Counter-ions that a name gives are not always drawn.

What was measured:
Type in all cases: cell-based, Plasmodium falciparum
[1] = test system: P. falciparum D6 (CDC/Sierra Leone I, D-6); test: In vitro screening protocol I, [3H]-hypoxanthine incorporation, D6; details: In vitro screening protocol I, P. falciparum D6; for IC50: Plasmodium falciparum, read-out: IC50 D6
Source text: (§1) Agents Chemother. 27 (4) (1985) 525-530). The system was limited to the assessment of the intrinsic activity against the erythrocytic asexual life cycle (blood schizontocides). Two Plasmodium falciparum clones from CDC/Indochina III (W-2) and CDC/Sierra Leone I (D-6) (Oduola A M, Weatherly N F, Bowdre J H, Desjardins R E. Plasmodium falciparum: cloning by single-erythrocyte micromanipulation and heterogeneity in vitro. Exp Parasitol. 66 (1) (1988) 86-95) were used for all assays. TM91C235, a multiple drug resistant isolate from Thailand (Antimicrob. Agents Chemother. 46 (8) (2002) 2627 and Antimicrob. Agents Chemother. 43 (3) (1999) 598-602), was used for the prescreening assay. W-2 is resistant to chloroquine, quinine, and pyrimethamine and susceptible to mefloquine. D-6 tends to be more resistant to mefloquine and susceptible to chloroquine, quinine, and pyrimethamine. All documents cited in this paragraph are incorporated by reference in their entirety.
(§2) All parasites were maintained in continuous long term cultures in RPMI-1640 medium supplemented with 6% washed human A positive (A+)(erythrocytes, 25 mM Hepes, […], and 10% heat inactivated A+ human plasma or ALBUMAX® (lipid-rich bovine serum albumin; Invitrogen, Carlsbad, Calif.). All cultures and assays were conducted at 37° C. under an atmosphere of 5% CO2 and 5% O2, with a balance of N2.
(§3) The prescreening assay uses TM91C235 diluted at a 0.4% parasitemia in a 1% hematocrit in folic acid free and p-aminobenzoic acid free media RPMI-1640 and ALBUMAX®. […] The compound is further diluted in folate free (FF) culture medium with ALBUMAX® for the first initial starting concentration. The rest of the stock drug solution was kept at −70° C. The isolate was preexposed, in duplicate, at three concentrations (25,000 ng/ml, 2,500 ng/ml, and […]) of the test compound for 48 hr in a 96-well microtiter plate (MTP) using the BIOMEK® 2000 automated laboratory workstation. Each MTP contains chloroquine as control to assess the relative activity of the compound and to monitor the response of TM91C235.
(§4) After the preincubation, [^3H]-hypoxanthine was added to each well of the MTP. (The assay relies on the incorporation of radiolabeled hypoxanthine by the parasites, which indicates reproduction, and inhibition of isotope incorporation was attributed to activity of known or candidate antimalarial drugs). After 72 hours of total incubation time, the MTP were frozen to lyse the erythrocytes and parasites. The parasite DNA was recovered by harvesting the lysate onto glass-fiber filter plates using a Packard FilterMate™ Cell Harvester. The radioactivity was counted on a Packard TopCount™ microplate scintillation counter.
(§5) The serial dilution assay was conducted using the same assay conditions and stock solution of the compound used for the preliminary screen, described above. Both the D-6 and the W-2 clones were used. The compounds were diluted two-fold over 11 different concentration ranges with a starting concentration that was based on the preliminary screen. For each drug, the concentration response profile was determined and 50% inhibitory concentrations (IC50) were determined by using a non-linear, logistic dose response analysis program. […] For each assay, the IC50 for each clone was determined against the known antimalarials chloroquine and mefloquine. These control values established the compound's relative parasite susceptibility profile compared to known antimalarials. […]

[2] = test system: P. falciparum W2 (CDC/Indochina III, W-2); test: In vitro screening protocol I, [3H]-hypoxanthine incorporation, W2; details: In vitro screening protocol I, P. falciparum W2; for IC50: Plasmodium falciparum, read-out: IC50 W2
Source text: as §1, §2, §3, §4, §5

P. falciparum TM91C235 = test: In vitro screening protocol I, [3H]-hypoxanthine incorporation, TM91C235; details: In vitro screening protocol I, P. falciparum TM91C235; for IC50: Plasmodium falciparum, read-out: IC50 TM91C235
Source text: as §1, §2, §3, §4, §5

Row | SMILES | IC50 [1] [µg/mL] | IC50 [2] [µg/mL] | IC50 (P. falciparum TM91C235) [µg/mL] | IC50 D6 [1] | IC50 W2 [2] | IC50 TM91C235 (P. falciparum TM91C235)
1 | CC[C@H]1OC(=O)[C@H](C)[C@@H](O[C@H]2C[C@@](C)(OC)[C@@H](O)[C@H](C)O2)[C@H](C)[C@@H](O[C@@H]2O[C@H](C)C[C@H](N(C)C)[C@H]2O)[C@](C)(O)C[C@@H](C)CN(CCC(=O)N[C@@H](C)c2cccc3ccccc23)[C@H](C)[C@@H](O)[C@]1(C)O [Example 42] | 0.1 to 0.2 (≈ 0.104 to 0.208 µM) | < 0.1 | < 0.1 | – | – | –
2 | CC[C@H]1OC(=O)[C@H](C)[C@@H](O[C@H]2C[C@@](C)(OC)[C@@H](O)[C@H](C)O2)[C@H](C)[C@@H](O[C@@H]2O[C@H](C)C[C@H](N(C)C)[C@H]2O)[C@](C)(O)C[C@@H](C)CN(CCC(=O)NCCCc2ccccc2)[C@H](C)[C@@H](O)[C@]1(C)O [Example 40] | 0.2 to 1 (≈ 0.216 to 1.08 µM) | 0.1 to 0.2 (≈ 0.108 to 0.216 µM) | 0.1 to 0.2 (≈ 0.108 to 0.216 µM) | – | – | –
3 | CC[C@H]1OC(=O)[C@H](C)[C@@H](O)[C@H](C)[C@@H](O[C@@H]2O[C@H](C)C[C@H](N(C)C)[C@H]2O)[C@](C)(O)C[C@@H](C)CN(CCCNC(=O)Cc2cccc3ccccc23)[C@H](C)[C@@H](O)[C@]1(C)O [Example 36, 9a-{3-[(Naphtalen-1-yl-acetyl)amino]propyl}-3-O-decladinosyl-9a-aza-9-deoxo-9-dihydro-9a-homoerythromycin A Formiate Salt] | 1 to 2.5 | 1 to 2.5 | 1 to 2.5 | – | – | –
4 | CC[C@H]1OC(=O)[C@H](C)[C@@H](O)[C@H](C)[C@@H](O[C@@H]2O[C@H](C)C[C@H](N(C)C)[C@H]2O)[C@](C)(O)C[C@@H](C)CN(CCCNCc2ccncc2)[C@H](C)[C@@H](O)[C@]1(C)O [Example 11, 9a-{3-[(Pyridine-4-yl-methyl)amino]propyl}-3-O-decladinosyl-9-deoxo-9-dihydro-9a-aza-9a-homoerythromycin A] | – | – | – | G (3500 < X ≦ 5000) | C (200 < X ≦ 1000) | F (2800 < X ≦ 3500)
5 | CC[C@H]1OC(=O)[C@H](C)[C@@H](O[C@H]2C[C@@](C)(OC)[C@@H](O)[C@H](C)O2)[C@H](C)[C@@H](O[C@@H]2O[C@H](C)C[C@H](N(C)C)[C@H]2O)[C@](C)(O)C[C@@H](C)CN(CCCNC(=O)c2ocnc2C)[C@H](C)[C@@H](O)[C@]1(C)O [Example 34, 9a-(3-{[(4-Methyl-1,3-oxazol-5-yl)carbonyl]amino}propyl)-9a-aza-9-deoxo-9-dihydro-9a-homoerythromycin A Formiate Salt] | 2.5 to 2.8 | 1 to 2.5 | 0.2 to 1 | – | – | –
6 | CC[C@H]1OC(=O)[C@H](C)[C@@H](O[C@H]2C[C@@](C)(OC)[C@@H](O)[C@H](C)O2)[C@H](C)[C@@H](O[C@@H]2O[C@H](C)C[C@H](N(C)C)[C@H]2O)[C@](C)(O)C[C@@H](C)CN(CCCNCc2ccncc2)[C@H](C)[C@@H](O)[C@]1(C)O [Example 10, 9a-{3-[(Pyridine-4-yl-methyl)amino]propyl}-9-deoxo-9-dihydro-9a-aza-9a-homoerythromycin A] | – | – | – | C (200 < X ≦ 1000) | C (200 < X ≦ 1000) | C (200 < X ≦ 1000)
7 | CC[C@H]1OC(=O)[C@H](C)[C@@H](O[C@H]2C[C@@](C)(OC)[C@@H](O)[C@H](C)O2)[C@H](C)[C@@H](O[C@@H]2O[C@H](C)C[C@H](N(C)C)[C@H]2O)[C@](C)(O)C[C@@H](C)CN(CCCNC(=O)[C@H](C)c2ccc3cc(OC)ccc3c2)[C@H](C)[C@@H](O)[C@]1(C)O [Example 32, 9a-[3-({(2S)-2-[6-(methyloxy)-naphthalen-2-yl]propanoyl}amino)propyl]-9a-aza-9-deoxo-9-dihydro-9a-homoerythromycin A Formiate Salt] | 0.2 to 1 | 0.1 to 0.2 | < 0.1 | – | – | –
8 | CC[C@H]1OC(=O)[C@H](C)[C@@H](O[C@H]2C[C@@](C)(OC)[C@@H](O)[C@H](C)O2)[C@H](C)[C@@H](O[C@@H]2O[C@H](C)C[C@H](N(C)C)[C@H]2O)[C@](C)(O)C[C@@H](C)CN(CCNCc2cccc3ccccc23)[C@H](C)[C@@H](O)[C@]1(C)O [Example 16, 9a-{2-[(Naphtalen-1-yl-methyl)amino]ethyl}-9-deoxo-9-dihydro-9a-aza-9a-homoerythromycin A] | – | – | – | B (100 < X ≦ 200) | A (X ≦ 100) | A (X ≦ 100)
9 | CC[C@H]1OC(=O)[C@H](C)[C@@H](O[C@H]2C[C@@](C)(OC)[C@@H](O)[C@H](C)O2)[C@H](C)[C@@H](O[C@@H]2O[C@H](C)C[C@H](N(C)C)[C@H]2O)[C@](C)(O)C[C@@H](C)CN(CCCNC(=O)CCc2ccccc2)[C@H](C)[C@@H](O)[C@]1(C)O [Example 46, 9a-{3-[(3-Phenylpropanoyl)amino]propyl}-9a-aza-9-deoxo-9-dihydro-9a-homoerythromycin A] | – | – | – | C (200 < X ≦ 1000) | C (200 < X ≦ 1000) | C (200 < X ≦ 1000)

Now from value to compound, other results behind:

Row | IC50 [1] [µg/mL] | IC50 [2] [µg/mL] | IC50 (P. falciparum TM91C235) [µg/mL] | SMILES | IC50 D6 [1] | IC50 W2 [2] | IC50 TM91C235 (P. falciparum TM91C235)
10 | < 0.1 | < 0.1 | < 0.1 | CC[C@H]1OC(=O)[C@H](C)[C@@H](O[C@H]2C[C@@](C)(OC)[C@@H](O)[C@H](C)O2)[C@H](C)[C@@H](O[C@@H]2O[C@H](C)C[C@H](N(C)C)[C@H]2O)[C@](C)(O)C[C@@H](C)CN(CCCNc2ccnc3ccccc23)[C@H](C)[C@@H](O)[C@]1(C)O [Example 22, 9a-[3-(Quinolin-4-yl-amino)propyl]-9-deoxo-9-dihydro-9a-aza-9a-homoerythromycin A] | – | – | –
11 | 0.1 to 0.2 (≈ 0.106 to 0.211 µM) | < 0.1 | < 0.1 | CC[C@H]1OC(=O)[C@H](C)[C@@H](O[C@H]2C[C@@](C)(OC)[C@@H](O)[C@H](C)O2)[C@H](C)[C@@H](O[C@@H]2O[C@H](C)C[C@H](N(C)C)[C@H]2O)[C@](C)(O)C[C@@H](C)CN(CCCN(C)Cc2cccc3ccccc23)[C@H](C)[C@@H](O)[C@]1(C)O [Example 17, 9a-{3-[Methyl-(naphtalen-1-yl-methyl)amino]propyl}-9-deoxo-9-dihydro-9a-aza-9a-homoerythromycin A] | – | – | –
12 | 0.2 to 1 (≈ 0.22 to 1.1 µM) | 0.2 to 1 (≈ 0.22 to 1.1 µM) | 0.2 to 1 (≈ 0.22 to 1.1 µM) | CC[C@H]1OC(=O)[C@H](C)[C@@H](O[C@H]2C[C@@](C)(OC)[C@@H](O)[C@H](C)O2)[C@H](C)[C@@H](O[C@@H]2O[C@H](C)C[C@H](N(C)C)[C@H]2O)[C@](C)(O)C[C@@H](C)CN(CCC(=O)NCCc2ccccc2)[C@H](C)[C@@H](O)[C@]1(C)O [Example 39] | – | – | –
13 | 0.1 to 0.2 (≈ 0.106 to 0.211 µM) | < 0.1 | < 0.1 | CC[C@H]1OC(=O)[C@H](C)[C@@H](O[C@H]2C[C@@](C)(OC)[C@@H](O)[C@H](C)O2)[C@H](C)[C@@H](O[C@@H]2O[C@H](C)C[C@H](N(C)C)[C@H]2O)[C@](C)(O)C[C@@H](C)CN(CCC(=O)NCc2ccc3ccccc3c2)[C@H](C)[C@@H](O)[C@]1(C)O [Example 43] | – | – | –
14 | 0.1 to 0.2 (≈ 0.107 to 0.214 µM) | < 0.1 | < 0.1 | CC[C@H]1OC(=O)[C@H](C)[C@@H](O[C@H]2C[C@@](C)(OC)[C@@H](O)[C@H](C)O2)[C@H](C)[C@@H](O[C@@H]2O[C@H](C)C[C@H](N(C)C)[C@H]2O)[C@](C)(O)C[C@@H](C)CN(CCCNCc2cnc3ccccc3c2)[C@H](C)[C@@H](O)[C@]1(C)O [Example 4, 9a-{3-[(Quinolin-3-yl-methyl)amino]propyl}-9-deoxo-9-dihydro-9a-aza-9a-homoerythromycin A] | – | – | –
